# Reference: patent publication US10246466B2, “Diaryl macrocycles as modulators of protein kinases” (TP THERAPEUTICS, INC., priority 2014, dated 2019)
# Tests used:
# JAK2 = JAK2 (Homo sapiens (Human), UniProt O60674); assay: KINOMEscan kinase binding assay (DiscoveRx)
# Procedure: (§1) For most assays, kinase-tagged T7 phage strains were prepared in an E. coli host derived from the BL21 strain. E. coli were grown to log-phase and infected with T7 phage and incubated with shaking at 32° C. until lysis. The lysates were centrifuged and filtered to remove cell debris. The remaining kinases were produced in HEK-293 cells and subsequently tagged with DNA for qPCR detection. […] The liganded beads were blocked with excess biotin and washed with blocking buffer (SeaBlock (Pierce), 1% BSA, 0.05% Tween 20, 1 mM DTT) to remove unbound ligand and to reduce nonspecific binding. […] All reactions were performed in polystyrene 96-well plates in a final volume of 0.135 mL. […] The kinase concentration in the eluates was measured by qPCR.
# [1] = system: Essential thrombocythemia cell line SET-2 cells (harboring endogenous JAK2 point mutation); assay: SET-2 cell proliferation assay (CellTiter-Glo); assay type: cell-based; settings: Homo sapiens, 72 hours incubation, read-out: SET2 cell proli. IC50
# [2] = system: Colorectal cell line KM12 (harboring endogenous TPM3-TRKA fusion gene); assay: KM12 cell proliferation assay (CellTiter-Glo); assay type: cell-based; settings: Homo sapiens, 72 hours incubation, read-out: KM 12 cell prolif. IC50
# Procedure: (§2) Colorectal cell lines KM 12 (harboring endogenous TPM3-TRKA fusion gene) cells were cultured in DMEM medium, supplemented with 10% fetal bovine serum and 100 U/mL of penicillin/streptomycin. 5000 cells were seeded in 384 well white plate for 24 hours before compounds treatment. Cell proliferation was measured using CellTiter-Glo luciferase-based ATP detection assay (Promega) following the manufactures's protocol after 72 hours incubation. IC50 determinations were performed using GraphPad Prism software (GraphPad, Inc., San Diego, Calif.).
# as §2, with “Alternatively: Colorectal” for “Colorectal”, “line KM12” for “lines KM 12”, “penicillin/streptomycin. […]” for “penicillin/streptomycin.”
# [3] = system: T cell lymphoma Karpas-299 cell line (harboring endogenous NPM-ALK fusion gene); assay: Karpas-299 cell proliferation assay (CellTiter-Glo); assay type: cell-based; settings: Homo sapiens, 72 hours incubation, read-out: Karpas 299 cell proli. IC50
# JAK1 = JAK1 (Homo sapiens (Human), UniProt P23458); assay: KINOMEscan kinase binding assay (DiscoveRx)
# Procedure: (§3) Kinase binding assays were performed at DiscoveRx using the general KINOMEscan Kd Protocol (Fabian, M. A. et al., “A small molecule-kinase interaction map for clinical kinase inhibitors,” Nat. Biotechnol. 2005, 23(3):329-36). For most assays, kinase-tagged T7 phage strains were prepared in an E. coli host derived from the BL21 strain. E. coli were grown to log-phase and infected with T7 phage and incubated with shaking at 32° C. until lysis. The lysates were centrifuged and filtered to remove cell debris. The remaining kinases were produced in HEK-293 cells and subsequently tagged with DNA for qPCR detection. Streptavidin-coated magnetic beads were treated with biotinylated small molecule ligands for 30 minutes at room temperature to generate affinity resins for kinase assays. The liganded beads were blocked with excess biotin and washed with blocking buffer (SeaBlock (Pierce), 1% BSA, 0.05% Tween 20, 1 mM DTT) to remove unbound ligand and to reduce nonspecific binding. […] All reactions were performed in polystyrene 96-well plates in a final volume of 0.135 mL. […] The beads were then re-suspended in elution buffer (1×PBS, 0.05% Tween 20, 0.5 μM non-biotinylated affinity ligand) and incubated at room temperature with shaking for 30 minutes. The kinase concentration in the eluates was measured by qPCR.
# JAK3 = JAK3 (Homo sapiens (Human), UniProt P52333); assay: KINOMEscan kinase binding assay (DiscoveRx)
# Sequence of JAK3 (P52333 whole entry): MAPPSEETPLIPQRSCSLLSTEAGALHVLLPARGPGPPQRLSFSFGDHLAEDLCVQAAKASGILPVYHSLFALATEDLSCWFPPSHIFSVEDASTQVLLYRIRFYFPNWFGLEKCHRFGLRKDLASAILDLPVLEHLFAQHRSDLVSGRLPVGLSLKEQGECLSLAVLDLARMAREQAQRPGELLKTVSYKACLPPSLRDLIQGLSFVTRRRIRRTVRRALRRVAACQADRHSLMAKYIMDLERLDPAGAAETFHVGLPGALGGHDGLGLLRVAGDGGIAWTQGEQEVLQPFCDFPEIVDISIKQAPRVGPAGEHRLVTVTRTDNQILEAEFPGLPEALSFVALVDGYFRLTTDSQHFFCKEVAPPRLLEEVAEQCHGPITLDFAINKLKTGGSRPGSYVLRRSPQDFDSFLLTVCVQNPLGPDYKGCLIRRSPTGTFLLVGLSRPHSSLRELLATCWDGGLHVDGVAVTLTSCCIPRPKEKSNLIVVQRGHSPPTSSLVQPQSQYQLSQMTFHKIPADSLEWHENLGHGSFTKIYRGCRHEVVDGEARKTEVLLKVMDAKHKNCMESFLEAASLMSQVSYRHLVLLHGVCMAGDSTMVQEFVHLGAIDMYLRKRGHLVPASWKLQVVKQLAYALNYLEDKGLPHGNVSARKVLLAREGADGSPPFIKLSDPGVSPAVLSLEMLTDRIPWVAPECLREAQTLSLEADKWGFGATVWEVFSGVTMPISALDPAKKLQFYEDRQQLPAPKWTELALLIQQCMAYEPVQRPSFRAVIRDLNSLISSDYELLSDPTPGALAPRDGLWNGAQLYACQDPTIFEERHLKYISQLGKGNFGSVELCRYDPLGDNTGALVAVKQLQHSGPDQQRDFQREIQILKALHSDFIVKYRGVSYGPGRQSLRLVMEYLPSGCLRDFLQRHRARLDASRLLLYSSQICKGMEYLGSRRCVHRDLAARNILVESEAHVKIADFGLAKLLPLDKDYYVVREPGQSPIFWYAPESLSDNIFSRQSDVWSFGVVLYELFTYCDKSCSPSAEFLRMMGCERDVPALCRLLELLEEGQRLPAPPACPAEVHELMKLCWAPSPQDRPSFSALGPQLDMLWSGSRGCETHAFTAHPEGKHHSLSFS
# Procedure: as §3
# TRKA = TRKA (Homo sapiens (Human), UniProt P04629); assay: KINOMEscan kinase binding assay (DiscoveRx)
# Sequence of TRKA (P04629 33-796): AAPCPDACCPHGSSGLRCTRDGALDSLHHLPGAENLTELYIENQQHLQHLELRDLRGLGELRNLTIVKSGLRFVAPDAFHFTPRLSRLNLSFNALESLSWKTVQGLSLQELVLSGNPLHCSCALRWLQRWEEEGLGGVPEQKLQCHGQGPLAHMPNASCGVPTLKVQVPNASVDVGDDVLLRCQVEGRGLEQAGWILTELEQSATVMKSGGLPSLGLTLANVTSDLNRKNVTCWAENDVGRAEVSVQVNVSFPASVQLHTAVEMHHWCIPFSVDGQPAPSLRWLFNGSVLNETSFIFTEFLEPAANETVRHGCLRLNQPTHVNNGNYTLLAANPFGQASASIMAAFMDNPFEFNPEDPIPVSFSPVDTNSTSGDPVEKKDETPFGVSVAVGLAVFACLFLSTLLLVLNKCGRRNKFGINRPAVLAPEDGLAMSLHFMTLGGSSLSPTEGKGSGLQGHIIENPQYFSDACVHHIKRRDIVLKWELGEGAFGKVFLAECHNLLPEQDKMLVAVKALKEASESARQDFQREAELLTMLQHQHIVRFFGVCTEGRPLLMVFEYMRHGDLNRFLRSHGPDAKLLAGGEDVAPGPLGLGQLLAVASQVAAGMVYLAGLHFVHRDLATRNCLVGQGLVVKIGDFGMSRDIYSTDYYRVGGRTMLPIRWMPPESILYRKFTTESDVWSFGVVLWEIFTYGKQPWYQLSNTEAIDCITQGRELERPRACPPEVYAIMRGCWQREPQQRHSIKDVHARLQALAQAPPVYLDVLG
# Procedure: as §3
# [4] = system: Ba/F3-EML4-ALK wild type cell line; assay: EML4-ALK Ba/F3 cell proliferation assay (CellTiter-Glo); assay type: cell-based; settings: 48 hours incubation
# Procedure: The EML4-ALK wild-type gene (variant 1) was synthesized at GenScript and cloned into pCDH-CMV-MCS-EF1-Puro plasmid (System Biosciences, Inc). Ba/F3-EML4-ALK wild type cell line was generated by infecting Ba/F3 cells with lentivirus containing EML4-ALK wide-type. Stable cell lines were selected by puromycin treatment, followed by IL-3 withdrawal. 5000 cells were seeded in 384 well white plate overnight before compound treatment. Cell proliferation was measured using CellTiter-Glo luciferase-based ATP detection assay (Promega) following the manufactures's protocol after 48 hours of various concentration of compound incubation. IC50 determinations were performed using GraphPad Prism software (GraphPad, Inc., San Diego, Calif.).
# ALK = ALK (Homo sapiens (Human), UniProt Q9UM73); assay: KINOMEscan kinase binding assay (DiscoveRx)
# Sequence of ALK (Q9UM73 19-1620): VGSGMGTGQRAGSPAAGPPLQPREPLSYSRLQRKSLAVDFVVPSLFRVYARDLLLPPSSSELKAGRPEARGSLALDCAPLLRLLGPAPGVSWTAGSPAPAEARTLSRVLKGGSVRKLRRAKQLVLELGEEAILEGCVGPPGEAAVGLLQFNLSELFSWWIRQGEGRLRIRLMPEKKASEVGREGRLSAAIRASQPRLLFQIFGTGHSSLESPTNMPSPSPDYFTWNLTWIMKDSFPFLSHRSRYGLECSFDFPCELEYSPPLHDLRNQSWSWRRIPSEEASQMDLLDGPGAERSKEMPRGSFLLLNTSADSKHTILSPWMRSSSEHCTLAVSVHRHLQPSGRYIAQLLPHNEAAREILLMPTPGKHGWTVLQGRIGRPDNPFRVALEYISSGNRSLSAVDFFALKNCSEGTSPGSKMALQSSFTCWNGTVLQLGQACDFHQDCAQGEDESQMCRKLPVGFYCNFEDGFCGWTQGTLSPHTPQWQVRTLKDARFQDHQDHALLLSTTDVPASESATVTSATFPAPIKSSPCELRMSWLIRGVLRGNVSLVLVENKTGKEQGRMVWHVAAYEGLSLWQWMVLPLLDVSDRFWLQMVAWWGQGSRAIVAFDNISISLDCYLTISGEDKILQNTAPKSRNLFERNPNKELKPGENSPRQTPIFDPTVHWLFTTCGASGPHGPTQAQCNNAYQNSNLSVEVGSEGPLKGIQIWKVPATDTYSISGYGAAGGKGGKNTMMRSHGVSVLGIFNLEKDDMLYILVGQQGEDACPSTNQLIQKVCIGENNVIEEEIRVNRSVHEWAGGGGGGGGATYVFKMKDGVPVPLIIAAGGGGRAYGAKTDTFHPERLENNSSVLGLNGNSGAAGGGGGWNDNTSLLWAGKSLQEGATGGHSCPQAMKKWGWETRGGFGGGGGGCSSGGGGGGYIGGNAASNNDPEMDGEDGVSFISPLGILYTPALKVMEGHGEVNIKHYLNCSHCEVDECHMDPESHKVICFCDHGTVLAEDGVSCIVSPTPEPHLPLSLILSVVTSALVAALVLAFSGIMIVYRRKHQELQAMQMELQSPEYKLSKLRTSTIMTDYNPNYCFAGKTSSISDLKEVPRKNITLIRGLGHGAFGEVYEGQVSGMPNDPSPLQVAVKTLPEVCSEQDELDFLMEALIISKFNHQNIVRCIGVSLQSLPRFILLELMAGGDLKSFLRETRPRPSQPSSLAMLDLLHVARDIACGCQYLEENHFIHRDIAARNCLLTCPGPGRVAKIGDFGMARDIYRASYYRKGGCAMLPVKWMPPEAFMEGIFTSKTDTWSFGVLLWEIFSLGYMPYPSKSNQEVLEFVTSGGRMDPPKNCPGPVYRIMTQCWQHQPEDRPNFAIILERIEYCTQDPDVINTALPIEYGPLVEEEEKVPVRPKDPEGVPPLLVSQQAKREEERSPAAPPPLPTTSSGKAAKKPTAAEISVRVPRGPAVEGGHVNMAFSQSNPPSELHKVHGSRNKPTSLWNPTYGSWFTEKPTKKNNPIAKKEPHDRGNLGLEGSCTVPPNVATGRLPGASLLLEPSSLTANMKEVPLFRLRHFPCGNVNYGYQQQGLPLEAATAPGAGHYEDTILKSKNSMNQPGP
# Procedure: as §1
# ROS1 = ROS1 (Homo sapiens (Human), UniProt P08922); assay: KINOMEscan kinase binding assay (DiscoveRx)
# Procedure: as §3
# KM12 cells = assay: Caspase activity assay / PARP western blot; assay type: cell-based; settings: 72 hours
# Procedure: KM12 cells were maintained in DMEM medium supplemented with 10% fetal bovine serum and antibiotics. 500,000 cells were seeded in 12-well plate and various concentration of compounds were introduced for 72 hours For staurosporine treatment, 500 nM of STS were added at time of 60 hours and incubation of 12 hours as a positive control. All the cells were collected and washed with 1×PBS twice and then lysed in a lysis buffer (20 mM HEPES, 150 mM NaCl, 10 mM KCl, 5 mM EDTA, 1% NP40) supplemented with Halt protease and phosphatase inhibitors (Thermo Scientific). For caspase assays, around 20 μL (20 μg) of cell lysate were incubated with 20 μL of caspase3 glo reagent (Promega), measuring enzyme activity by the release of luminescence after 20 min incubation at 37° C. For western blotting, cell lysates were boiled and analyzed by SDS-PAGE/immunoblotting using PARP, or actin antibodies.
# ERK = assay: Downstream signal target phosphorylation assay in KM12 cells (western blot); assay type: cell-based; settings: Homo sapiens, 5 hours treatment, read-out: inhibition of phosphorylation of ERK IC50
# Procedure: (§4) Colorectal cell lines KM 12 (harboring endogenous TPM3-TRKA fusion gene) cells were cultured in DMEM medium, supplemented with 10% fetal bovine serum and 100 U/mL of penicillin/streptomycin. One million cells were seeded in 6-well plate for 24 hours before compounds treatment. Cells were washed with 1×PBS and collected after 5 hours treatment and lysed in RIPA buffer (50 mM Tris, pH 7.4, 150 mM NaCl, 1% NP-40, 0.5% Deoxycholate, 0.1% SDS) supplemented with 10 mM EDTA, Halt protease and phosphatase inhibitors (Thermo Scientific). Protein lysates (20 μg) were resolved on 4-12% Bolt Bis-Tris precasted gels with MES running buffer (Life Technologies), transferred to nitrocellulose membranes using Trans-Blot Turbo Transfer System (Bio-Rad) and detected with antibodies targeting phosphorylated TRK A (Cell Signaling Technology, Y496, Y680, Y681, clone C50F3; 1:1000 dilution), total TRK A (Santa Cruz Biotechnology, sc-11; clone C-14, 1:2000 dilution), phosphorylated AKT (Cell signaling, S473, D9E, #9271; 1:5000 dilution), total AKT (Cell Signaling Technology, 40D4; 1:2000 dilution), phosphorylated ERK (Cell Signaling Technology, Thr 202/204, D13.14.4E, #4370; 1:2000 dilution), total ERK (Cell Signaling Technology; 1:1000 dilution) and Tubulin (Sigma, T4026, 1:5000 dilution). […]
# AKT = assay: as above; assay type: cell-based; settings: Homo sapiens, 5 hours treatment, read-out: inhibition of phosphorylation of AKT IC50
# Procedure: as §4
# TPM3-TRKA = TPM3-TRKA (Homo sapiens (Human), UniProt P04629+P06753); assay: TRKA phosphorylation assay in KM12 cells (western blot); assay type: cell-based; settings: 5 hours treatment, read-out: inhibition of autophosphorylation of TPM3-TRKA IC50
# Procedure: as §4
# PLK4 kinase = PLK4 kinase (Homo sapiens (Human), UniProt O00444); assay: KINOMEscan kinase binding assay (DiscoveRx); settings: read-out: binding affinity with PLK4 kinase (Kd)
# Procedure: as §3
# TRKB = TRKB (Homo sapiens (Human), UniProt Q16620); assay: KINOMEscan kinase binding assay (DiscoveRx)
# Procedure: as §3
# Sequence of JAK2 (O60674 whole entry): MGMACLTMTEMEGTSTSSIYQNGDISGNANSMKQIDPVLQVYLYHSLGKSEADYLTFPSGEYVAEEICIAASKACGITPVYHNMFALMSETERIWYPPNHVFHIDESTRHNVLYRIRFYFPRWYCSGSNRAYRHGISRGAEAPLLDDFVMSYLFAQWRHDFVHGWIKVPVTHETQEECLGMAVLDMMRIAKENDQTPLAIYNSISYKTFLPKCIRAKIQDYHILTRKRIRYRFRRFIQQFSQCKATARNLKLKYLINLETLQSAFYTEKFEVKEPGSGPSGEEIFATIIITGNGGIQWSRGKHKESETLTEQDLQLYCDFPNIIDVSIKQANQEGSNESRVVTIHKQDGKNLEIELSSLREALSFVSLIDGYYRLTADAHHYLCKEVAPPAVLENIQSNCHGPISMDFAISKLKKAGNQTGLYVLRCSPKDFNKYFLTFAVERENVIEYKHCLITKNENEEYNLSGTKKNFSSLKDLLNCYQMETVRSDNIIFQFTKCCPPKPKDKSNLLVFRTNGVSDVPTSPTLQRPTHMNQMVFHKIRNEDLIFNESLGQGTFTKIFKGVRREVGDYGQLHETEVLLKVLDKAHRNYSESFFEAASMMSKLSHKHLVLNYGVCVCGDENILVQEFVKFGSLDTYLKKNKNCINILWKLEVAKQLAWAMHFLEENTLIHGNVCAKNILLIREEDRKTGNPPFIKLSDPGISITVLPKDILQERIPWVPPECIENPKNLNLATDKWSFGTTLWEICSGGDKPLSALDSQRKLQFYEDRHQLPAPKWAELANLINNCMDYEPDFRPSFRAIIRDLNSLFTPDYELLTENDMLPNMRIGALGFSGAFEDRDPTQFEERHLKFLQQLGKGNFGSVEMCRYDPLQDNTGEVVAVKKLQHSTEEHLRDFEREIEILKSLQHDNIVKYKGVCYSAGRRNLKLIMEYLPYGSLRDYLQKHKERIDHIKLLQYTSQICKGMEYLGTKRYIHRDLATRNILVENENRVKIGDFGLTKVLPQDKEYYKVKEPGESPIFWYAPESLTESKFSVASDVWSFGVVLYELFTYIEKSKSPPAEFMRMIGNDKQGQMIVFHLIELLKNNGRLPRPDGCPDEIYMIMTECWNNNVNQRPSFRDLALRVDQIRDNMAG
Kd (JAK2) [nM],IC50 [3] [nM],Kd (JAK1) [nM],Kd (JAK3) [nM],Kd (TRKA) [nM],Kd (ALK) [nM],Kd (ROS1) [nM],IC50 (ERK) [nM],IC50 (AKT) [nM],IC50 (TPM3-TRKA) [nM],Kd (PLK4 kinase) [nM],Kd (TRKB) [nM],Structure (SMILES),IC50 [1] [nM],IC50 [2] [nM],EML4-ALK Ba/F3 cell proli. TC50 [4] [nM],apoptosis of KM 12 cells (KM12 cells)
0.15,832,65,4.3,0.065,–,–,–,–,–,–,–,"CC1Nc2ccn3ncc(c3n2)C(=O)NCCOc2ccc(F)cc21 (centres unmarked) [Example 51, 11-fluoro-13-methyl-6,7,13,14-tetrahydro-1,15-ethenopyrazolo[4,3-f][1,4,8,10]benzoxatriazacyclotridecin-4(5H)-one]",425,3.2,–,–
0.048,289,37,1.8,0.051,6.8,0.73,–,–,–,–,–,"C[C@H]1Nc2ccn3ncc(c3n2)C(=O)NCCOc2ccc(F)cc21 [Example 51-1, (13R)-11-fluoro-13-methyl-6,7,13,14-tetrahydro-1,15-ethenopyrazolo[4,3-f][1,4,8,10]benzoxatriazacyclotridecin-4(5H)-one]",234,1.3,248,–
4.8,1000,> 1000,120,0.031,80,21,2,2.8,1.07,2.9,0.18,"CN1Cc2cc(F)ccc2OCCNC(=O)c2cnn3ccc1nc23 [Example 20, 11-fluoro-14-methyl-6,7,13,14-tetrahydro-1,15-ethenopyrazolo[4,3-f][1,4,8,10]benzoxatriazacyclo-tridecin-4(5H)-one]",2000,0.86,–,induced apoptosis
–,–,–,–,–,–,–,–,–,–,–,–,"C[C@H]1CNC(=O)c2cnn3ccc(nc23)N[C@H](C)c2cc(F)ccc2O1 [Example 93, (7S,13R)-11-fluoro-7,13-dimethyl-6,7,13,14-tetrahydro-1,15-ethenopyrazolo[4,3-f][1,4,8,10]benzoxatriazacyclotridecin-4(5H)-one]",242,0.5,21.1,–
2.6,3900,280,33,6,200,–,–,–,–,–,–,"CC1Oc2ccc3ncc(n3n2)C(=O)NCCOc2ccc(F)cc21 (centres unmarked) [Example 41, 10-fluoro-8-methyl-15,16-dihydro-8H-3,6-ethenoimidazo[5,1-f][1,10,4,7,8]benzodioxatriazacyclotridecin-17(14H)-one]",1500,118,–,–

Structure (SMILES),Kd (JAK2) [nM],IC50 [3] [nM],Kd (JAK1) [nM],Kd (JAK3) [nM],Kd (TRKA) [nM],Kd (ALK) [nM],Kd (ROS1) [nM],IC50 (ERK) [nM],IC50 (AKT) [nM],IC50 (TPM3-TRKA) [nM],Kd (PLK4 kinase) [nM],Kd (TRKB) [nM],IC50 [1] [nM],IC50 [2] [nM],EML4-ALK Ba/F3 cell proli. TC50 [4] [nM],apoptosis of KM 12 cells (KM12 cells)
"C[C@@H]1CNC(=O)c2cnn3ccc(nc23)N[C@H](C)c2cc(F)ccc2O1 [Example 92, (7R,13R)-11-fluoro-7,13-dimethyl-6,7,13,14-tetrahydro-1,15-ethenopyrazolo[4,3-f][1,4,8,10]benzoxatriazacyclotridecin-4(5H)-one]",–,88.7,–,–,–,–,–,–,–,–,–,–,142,0.3,78.6,–
